# Data reported in patent US20240075064A1, “COMPOSITIONS AND METHODS FOR EXPANSION OF T CELLS AND TUMOR INFILTRATING LYMPHOCYTES” (OBSIDIAN THERAPEUTICS, INC., priority 2021, published 2024).
# System: IL15 signaling pathway
# Test: Phospho-flow cytometry assay of IL15 expression and signaling (pSTAT5, pS6)
# Assay type: cell-based, human
# Settings: regulated mbIL15 TILs, ACZ 0.1-100, 18 hours
# Description: Pre-REP TILs were prepared similarly to the methods of Example 1-3 and 9, and unengineered and mbIL15 TIL generated accordingly as described in Examples 1-3 and 9. Engagement of the IL15 signaling pathway results in phosphorylation of signal transducers downstream, including the transcription factor protein STATS and ribosomal protein S6. […] Next, the regulated mbIL15 TILs were regulated for 18 hours in the presence of a range of concentrations of ACZ including 0.1, 1, 2.5, 5, 10, 25, 100 as well as vehicle control. The regulated mbIL15 TILs were then collected for staining and FACS analysis.
# Briefly, cells were stained using antibodies for CD3, CD4, CD8, IL15 and a Live/Dead marker. Then cells were fixed in 2% formaldehyde (BD Cytofix) and permeabilized using a methanol-based buffer (BD Phospho Perm III Buffer) before staining with antibodies specific for phosphorylated STATS (Biolegend) and S6 (Cell Signaling Technology). Cells were acquired on the BD Symphony and analyzed using FlowJo software.
# In order to compare different strategies for IL15 expression, TILs were utilized that constitutively express mbIL15 and regulated mbIL15 TILs. Cryopreserved unengineered TILs, constitutive mbIL15 TILs, and regulated mbIL15 TILs, from three human donors were thawed and then rested in ACZ-free media for 24 hours. […] Cells were acquired on the BD Fortessa and analyzed using FlowJo software.
smiles,measurement,value
"CC(=O)Nc1nnc(S(N)(=O)=O)s1 [ACZ, acetazolamide]",staining intensity of pSTAT5 and pS6,increased with higher concentrations of ACZ
